“Also recorded” adds a separate entry of the source. Where two headings read alike, the source gives them in different places.
How the values were obtained:
[1] = tested on: cytochrome P 450 subtypes; experiment: interaction with cytochrome P 450 subtypes; type: in vitro ADME
[2] = tested on: abdominal pain (abdominal cramps elicited by rectal distention); experiment: abdominal cramps elicited by rectal distention in trinitrobenzenesulfonic acid-pretreated rats; type: in vivo; conditions: administered alone
Description: The combinations of the invention involve a synergy against abdominal pain as the authors of the present invention have discovered using a classical model of abdominal pain in rodents (Morteau et al., Gastroenterology, 1993, 104, 47). Rats were […] trinitrobenzenesulfonic acid to induce intestinal inflammation and pain sensitivity, as assessed by evaluation of the abdominal cramps elicited by rectal distention.

E. coli toxins = conditions: cited from earlier work
drug metabolism pathway = type: in vitro ADME; conditions: enkephalinase inhibitors
[3] = tested on: castor oil-induced diarrhoea; experiment: castor oil-induced diarrhoea in rats; type: in vivo
Description: The outstanding activity of the combinations of the invention was evidenced on an animal model of experimental diarrhoea. A combination of the invention was evaluated on the castor oil-induced diarrhoea in rats, according to Niemegeers et al. ([…]. (Drug Res), 1974, 24 No. 10). Rats received ondansetron (0.1 mg/kg, p.o.) and racecadotril (40 mg/kg, p.o.) administered together. […] As comparative examples, ondansetron and racecadotril were also administered alone at the same dosages.

[4] = tested on: L.P.S. typhimurium-induced diarrhoea; experiment: L.P.S. typhimurium-induced diarrhoea; type: in vivo; conditions: dexecadotril 0.1 mg/kg alone
[5] = 5-HT3 receptor inhibitors; cited from earlier work
gastroenteritis = conditions: cited from earlier work
[6] = in vivo; cited from earlier work
Salmonella = conditions: cited from earlier work
abdominal cramps = conditions: via protection of endogenous opioid peptides; cited from earlier work
colonic transit = colonic transit in rodents; type: in vivo; conditions: enkephalinase inhibitor alone
Description: This effect is blocked by co-administration of ondansetron. Since the transit is already strongly accelerated in gastroenteritis, the combinations of the present invention allow the antisecretory pro-absorptive activity of enkephalinase inhibitors to be exerted for a longer time upon the watery intestinal lumen content, thus resulting in a synergic antidiarrheal effect.

[7] = racecadotril 40 mg/kg p.o. alone

| Compound | interaction with cytochrome P 450 subtypes [1] | prevention of pain manifestations [2] | antisecretory activity (E. coli toxins) | metabolism pathway (drug metabolism pathway) | antidiarrheal activity ([3]; dexecadotril 0.1 mg/kg alone) | antidiarrheal activity [4] | metabolism pathway [5] | antidiarrheal activity ([3]; ondansetron 0.1 mg/kg p.o. alone) | antidiarrheal activity ([3]; ondansetron 1 mg/kg alone) | diarrhoea (gastroenteritis) | emesis (gastroenteritis; particularly in children) | plasma half-life [6] [h] | prevention of hypersecretion (Salmonella) | antinociceptive effect (abdominal cramps) | duration of protection [3, 7] [h] | protection against diarrhoea [3, 7] | effect on colonic transit (colonic transit) | abdominal pain (gastroenteritis) |
| --- | --- | --- | --- | --- | --- | --- | --- | --- | --- | --- | --- | --- | --- | --- | --- | --- | --- | --- |
| CC(=O)SC[C@H](Cc1ccccc1)C(=O)NCC(=O)OCc1ccccc1 [dexecadotril] | do not significantly interact | partially prevent | active | mainly occurs via S-methylation | an antidiarrheal activity; also recorded: only partially inactive | an antidiarrheal activity |  |  |  |  |  |  |  |  |  |  |  |  |
| Cc1nccn1CC1CCc2c(c3ccccc3n2C)C1=O (stereo not drawn) [ondansetron] |  | partially prevent | not |  |  |  | oxidation by various cytochrome P 450 subtypes | inactive | inactive | not significantly affected or even increased; also recorded: fail to affect diarrhoea; also recorded: increase its duration | significantly reduced | ~3 | prevents the hypersecretion |  |  |  |  |  |
| CC(=O)SCC(Cc1ccccc1)C(=O)NCC(=O)OCc1ccccc1 (stereo not drawn) [racecadotril] | do not significantly interact | partially prevent | active | mainly occurs via S-methylation |  |  |  |  |  |  |  | ~3 |  | partial antinociceptive effect | 4 | partial protection | tend to accelerate colonic transit | significantly diminished |
| CN1C2CCCC1CC(NC(=O)c1nn(C)c3ccccc13)C2 (stereo not drawn) [granisetron] |  |  |  |  |  |  | oxidation by various cytochrome P 450 subtypes |  |  |  |  | ~3 |  |  |  |  |  |  |
